Source: patent US20050101621A1, “Method for rapid detoxification of addiction” (priority 2003, published 2005)

Assay: general anesthesia assisted opiate detoxification with high-rate opiod antagonist infusion
Assay type: in vivo, patient
From the text: Treatment begins by providing the patient with Valium, Xanax and Trazedone, which are taken orally. The patient's vitals are then monitored using such equipment as an electrocardiogram, pulse oxymeter, blood pressure monitor, ETCO2 monitor, oxygen sensor, and tidol volume monitor. An intravenous (IV) line is then set-up and general anesthesia is induced, preferably using Valium, Propofol and Mivacron. These anesthetizing agents are suited to facilitate endotracheal (ET) intubation.
Once the anesthesia takes effect, an endotracheal tube is appropriately placed through the patient's oral cavity and the patient retrieves to spontaneous respirations over the next few minutes. A Precedex infusion is then started, preferably at […], to achieve cardiovascular stability. Next antiemetics and antiperistaltic agents are then administered. In accordance with the preferred method the antiemetics and antiperistaltic agents comprise dexamethazone somatostatin and robinul; other similar agents can be employed. An antihistamine agent, e.g., Benedryl, is then given.
Next, a Naloxone (or its generic counterpart Narcane) infusion is started at rate of 0.6 mg/kg/hr for one hour, i.e., 0.6 mg/hr per unit of the patient's metric weight. In accordance with the present invention, Naloxone is administered at rate greater than 1.5 mg/hr. […]

**Q.** With `C=CCN1CC[C@]23c4c5ccc(O)c4O[C@H]2C(=O)CC[C@@]3(O)[C@H]1C5` [Naloxone] as the molecule, how does the “medical risk to the patient of high-rate Naloxone administration” value (infusion 0.6 mg/kg/hr for one hour (30 mg/hr for 50 kg, approximately 50 mg/hr for 75 kg), patient anesthetized) read?
**A.** The value was “does not expose a patient to a severe medical risk”.

**Q.** What about the “risk to the patient of Naloxone administration” value (rate of 1.4 mg/kg/hr) of the same molecule?
**A.** Its value is “without exposing the patient to unnecessary risks”.
